Measured values published in ChEMBL document CHEMBL2417501, “Synthesis of 4-aminoquinoline-pyrimidine hybrids as potent antimalarials and their mode of action studies” (Eur J Med Chem, 2013).
pEC50, pIC50: −log10 of the molar value.

Assays:
DNA [1] = assay: Binding affinity to calf thymus DNA assessed as change in melting temperature at 30 uM by UV-visible spectrophotometry; type: nucleic-acid assay; settings: Bos taurus
[2] = Inhibition of beta-hematin formation at 1 mg/ml; type: functional
Feline coronavirus = assay: Antiviral activity against Feline coronavirus infected in cat CRFK cells assessed as reduction of virus-induced cytopathogenicity by MTS assay; type: functional, organism-based; settings: Alphacoronavirus 1, CRFK
Human alphaherpesvirus 1 [3] = assay: Antiviral activity against TK-negative Herpes simplex virus 1 KOS infected in human HEL cells assessed as reduction of virus-induced cytopathogenicity; type: functional, organism-based; settings: Human alphaherpesvirus 1, KOS
Human alphaherpesvirus 3 [4] = assay: Antiviral activity against TK-positive Varicella-zoster virus OKA infected in human HEL cells assessed as reduction of plaque formation; type: functional, cell-based; settings: Human alphaherpesvirus 3, strain Oka vaccine
Influenza A virus [5] = assay: Antiviral activity against influenza A virus […] subtype infected in dog MDCK cells assessed as reduction of virus-induced cytopathogenicity by MTS assay; type: functional, organism-based; settings: read-out: EC50
[6] = Selectivity index, ratio of CC50 for MDCK cells to IC50 for chloroquine-resistant Plasmodium falciparum Dd2; type: functional
[7] = test system: Respiratory syncytial virus; assay: Antiviral activity against Respiratory syncytial virus infected in human HeLa cells assessed as reduction of virus-induced cytopathogenicity; type: functional, organism-based
Heme [8] = assay: Binding affinity to monomeric heme (unknown origin) in MES buffer at pH 5.6 at 1 to 25 uM by UV-visible spectrophotometry
[9] = test system: Vesicular stomatitis virus; assay: Antiviral activity against Vesicular stomatitis virus infected in human HeLa cells assessed as reduction of virus-induced cytopathogenicity; type: functional, organism-based
Cytomegalovirus [10] = assay: Antiviral activity against Cytomegalovirus Davis infected in human HEL cells assessed as reduction of plaque formation; type: functional, organism-based; settings: Human betaherpesvirus 5, Davis
DNA [11] = assay: Binding affinity to calf thymus DNA assessed as compound DNA intercalation measured as hypochromatic shift at 255 nm at 30 uM by UV-visible spectrophotometry; type: nucleic-acid assay; settings: Bos taurus
DNA [12] = assay: Binding affinity to calf thymus DNA at 30 uM by fluorescence assay; type: nucleic-acid assay; settings: Bos taurus
Influenza A virus [13] = assay: Antiviral activity against influenza A virus H1N1 subtype infected in dog MDCK cells assessed as reduction of virus-induced cytopathogenicity by MTS assay; type: functional, organism-based
[14] = Cytotoxicity against human HeLa cells; type: cell-based
[15] = test system: Vesicular stomatitis virus; assay: Antiviral activity against Vesicular stomatitis virus infected in human HEL cells assessed as reduction of virus-induced cytopathogenicity; type: functional, organism-based
Human alphaherpesvirus 1 [16] = assay: Antiviral activity against Herpes simplex virus-1 KOS infected in human HEL cells assessed as reduction of virus-induced cytopathogenicity; type: functional, organism-based; settings: Human alphaherpesvirus 1, KOS
DNA [17] = assay: Binding affinity to calf thymus DNA assessed as compound DNA intercalation measured as hypochromatic shift at 330 nm at 30 uM by UV-visible spectrophotometry; type: nucleic-acid assay; settings: Bos taurus
Influenza B virus = assay: Antiviral activity against influenza B virus infected in dog MDCK cells assessed as reduction of virus-induced cytopathogenicity by MTS assay; type: functional, organism-based
[18] = Cytotoxicity against human HEL cells; type: cell-based
Human alphaherpesvirus 3 [19] = assay: Antiviral activity against […] Varicella-zoster virus 07-1 infected in human HEL cells assessed as reduction of plaque formation; type: functional, organism-based; settings: Human alphaherpesvirus 3, 07-1, HEL
Coxsackievirus [20] = assay: Antiviral activity against Coxsackievirus B4 infected in african green monkey Vero cells assessed as reduction of virus-induced cytopathogenicity; type: functional, organism-based
Plasmodium falciparum [21] = assay: Antimalarial activity against chloroquine-resistant Plasmodium falciparum Dd2; type: functional, organism-based
mu-oxodimeric heme = assay: Binding affinity to mu-oxodimericheme (unknown origin) in phosphate buffer at pH 5.8 at 1 to 25 uM by UV-visible spectrophotometry
[22] = Cytotoxicity against cat CRFK cells; type: cell-based, Felis catus
[23] = Cytotoxicity against african green monkey Vero cells; type: cell-based; settings: chlorocebus sabaeus
Human alphaherpesvirus 2 = assay: Antiviral activity against Herpes simplex virus-2 G infected in human HEL cells assessed as reduction of virus-induced cytopathogenicity; type: functional, organism-based; settings: Human alphaherpesvirus 2, strain G
Heme [24] = assay: Binding affinity to monomeric heme (unknown origin) in HEPES buffer at pH 7.4 at 1 to 25 uM by UV-visible spectrophotometry
[25] = (§1) Cytotoxicity against MDCK cells assessed as cell viability after 4 days by MTS assay; type: cell-based, Canis lupus familiaris; settings: dog, MDCK cells
MDCK = assay: as §1; type: cell-based, Canis lupus familiaris; settings: dog, mdck, 96 h
[26] = test system: Mammalian orthoreovirus 1; assay: Antiviral activity against Reovirus-1 infected in african green monkey Vero cells assessed as reduction of virus-induced cytopathogenicity; type: functional, organism-based; settings: Mammalian orthoreovirus 1, Vero
Escherichia coli = assay: Binding affinity to Escherichia coli pUC18 DNA at 30 uM by fluorescence assay
Cytomegalovirus [27] = assay: Antiviral activity against Cytomegalovirus AD-169 infected in human HEL cells assessed as reduction of plaque formation; type: functional, organism-based; settings: Human betaherpesvirus 5, AD-169, HEL
Human respirovirus 3 = assay: Antiviral activity against Parainfluenza-3 virus infected in african green monkey Vero cells assessed as reduction of virus-induced cytopathogenicity; type: functional, organism-based; settings: Human respirovirus 3, Vero
Sindbis virus = assay: Antiviral activity against Sindbis virus infected in african green monkey Vero cells assessed as reduction of virus-induced cytopathogenicity; type: functional, organism-based
Coxsackievirus [28] = assay: Antiviral activity against Coxsackievirus B4 infected in human HeLa cells assessed as reduction of virus-induced cytopathogenicity; type: functional, organism-based
Punta Toro virus = assay: Antiviral activity against […] infected in african green monkey Vero cells assessed as reduction of virus-induced cytopathogenicity; type: functional, organism-based
Felid alphaherpesvirus 1 = assay: Antiviral activity against feline herpesvirus infected in cat CRFK cells assessed as reduction of virus-induced cytopathogenicity by MTS assay; type: functional, organism-based; settings: Felid alphaherpesvirus 1, CRFK
Plasmodium falciparum [29] = assay: Antimalarial activity against chloroquine-sensitive Plasmodium falciparum D10 by two-fold dilution technique; type: functional, organism-based

| SMILES | inhibition [2] [%] | pEC50 (Feline coronavirus) | pEC50 (Human alphaherpesvirus 1 [3]) | pEC50 (Human alphaherpesvirus 3 [4]) | pEC50 (Influenza A virus [5]) | Ratio CC50/IC50 [6] | pEC50 [7] | pEC50 [9] | pEC50 (Cytomegalovirus [10]) | pEC50 (Influenza A virus [13]) | MCC [14] [µM] | pEC50 [15] | pEC50 (Human alphaherpesvirus 1 [16]) | pEC50 (Influenza B virus) | MCC [18] [µM] | pEC50 (Human alphaherpesvirus 3 [19]) | pEC50 (Coxsackievirus [20]) | pIC50 (Plasmodium falciparum [21]) | MCC [23] [µM] | pEC50 (Human alphaherpesvirus 2) | also measured |
| --- | --- | --- | --- | --- | --- | --- | --- | --- | --- | --- | --- | --- | --- | --- | --- | --- | --- | --- | --- | --- | --- |
| CCN(CC)CCCC(C)Nc1ccnc2cc(Cl)ccc12 (configuration not stated) | 98 | – | – | – | – | – | – | – | – | – | – | – | – | – | – | – | – | – | – | – | ΔTm (DNA [1]): 9 °C |
| Cc1nc(NCCCCNc2ccnc3cc(Cl)ccc23)nc(-c2ccccc2)c1C(=O)OC(C)C | 72 | < 4.70 | < 5.40 | 5.40 | < 6.80 | 3.92 | < 4.00 | < 4.00 | < 5.40 | < 6.80 | > 100 | < 5.40 | < 5.40 | < 6.80 | 20 | < 5.40 | < 5.40 | 6.82 | 20 | < 5.40 | log K (Heme [8]): 4.58; ΔTm (DNA [1]): 7.5 °C; Activity (DNA [11]): 112%; log K (DNA [12]): 5.76; Activity (DNA [17]): 37%; log K (mu-oxodimeric heme): 5.72; CC50 ([22]; crfk): 50.6 µM; log K (Heme [24]): 4.96; MCC at 96 h [25]: 800 nM; CC50 (MDCK): 0.6 µM; pEC50 [26]: < 5.40; log K (Escherichia coli): 5.73; pEC50 (Cytomegalovirus [27]): < 5.40; pEC50 (Human respirovirus 3): < 5.40; pEC50 (Sindbis virus): < 5.40; pEC50 (Coxsackievirus [28]): < 4.00; pEC50 (Punta Toro virus): < 5.40; pEC50 (Felid alphaherpesvirus 1): < 4.70 |
| COC(=O)c1c(C)nc(NCCCNc2ccnc3cc(Cl)ccc23)nc1-c1ccccc1 | 46 | 5.96 | < 4.70 | < 5.40 | < 6.80 | 3.13 | < 4.70 | < 4.70 | 4.82 | < 6.80 | 100 | < 4.70 | < 4.70 | < 6.80 | ≥ 20 | < 5.40 | < 5.40 | 6.27 | 20 | < 4.70 | pIC50 (Plasmodium falciparum [29]): 6.18; CC50 ([22]; crfk): 25.1 µM; MCC at 96 h [25]: 800 nM; CC50 (MDCK): 1.7 µM; pEC50 [26]: < 5.40; pEC50 (Cytomegalovirus [27]): 4.96; pEC50 (Human respirovirus 3): < 5.40; pEC50 (Sindbis virus): < 5.40; pEC50 (Coxsackievirus [28]): < 4.70; pEC50 (Punta Toro virus): < 5.40; pEC50 (Felid alphaherpesvirus 1): < 4.70 |
| CCOC(=O)c1cnc(NCCCCNc2ccnc3cc(Cl)ccc23)nc1C | 58 | < 4.00 | < 4.00 | < 4.70 | < 5.40 | 30.65 | < 4.70 | < 4.70 | < 4.70 | < 5.40 | 100 | < 4.00 | < 4.00 | < 5.40 | ≥ 100 | < 4.70 | < 4.70 | 6.47 | 100 | < 4.00 | pIC50 (Plasmodium falciparum [29]): 6.68; CC50 ([22]; CRFK cells): > 100 µM; CC50 at 96 h [25]: 10.3 µM; MCC at 96 h [25]: ≥ 4000 nM; pEC50 [26]: < 4.70; pEC50 (Cytomegalovirus [27]): < 4.70; pEC50 (Human respirovirus 3): < 4.70; pEC50 (Sindbis virus): < 4.70; pEC50 (Coxsackievirus [28]): < 4.70; pEC50 (Punta Toro virus): < 4.70; pEC50 (Felid alphaherpesvirus 1): < 4.00 |
